The results in this text go back to ChEMBL document CHEMBL5053494, “Novel halogenated arylvinyl-1,2,4 trioxanes as potent antiplasmodial as well as anticancer agents: Synthesis, bioevaluation, structure-activity relationship and in-silico studies” (Eur J Med Chem, 2021).

SMILES strings stand for the structures. Calls of active or inactive are those of the source. No cut-off for these calls is given here.

Series [1] is described as follows: Cytotoxicity against human HEK293 cells assessed as cell viability measured for 24 hrs by MTT assay. Format: cell-based. Background: Formazan colour is commonly taken as a measure of viable cells.
Series [2] relates to Plasmodium falciparum. Description: Antiplasmodial activity against artemisinin-resistant Plasmodium falciparum Cam 3.1 R539 assessed as growth inhibition by SYBER green 1 dye based fluorescence assay. Format: functional, organism-based.
The subject of a further series is HepG2. The series can be described thus: Anticancer activity against human HepG2 cells assessed as cell growth inhibition measured for 72 hrs by MTT assay. Format: functional, cell-based. As to conditions: HepG2, 72 h.
Series [3] relates to Plasmodium falciparum. Description: Antiplasmodial activity against chloroquine-resistant Plasmodium falciparum INDO assessed as growth inhibition by SYBER green 1 dye based fluorescence assay. It counts as functional, organism-based.
Series [4] can be described thus: Selectivity ratio of IC50 for anticancer activity against human L02 cells to IC50 for anticancer activity against human HepG2 cells. Format: toxicity, cell-based. As to conditions: L02 cells versus HepG2 cells, read-out: Ratio IC50.
For series [5], the system named is BEAS-2B. The series can be described thus: Induction of apoptosis in human BEAS-2B cells assessed as late apoptotic cells measured after 24 hrs by annexinV-FITC/propidium iodide staining based flow cytometry. It counts as functional. For orientation: In flow cytometry, cells or beads pass a laser one at a time.
For series [6], the system named is A549. Description: Induction of apoptosis in human A549 cells assessed as early apoptotic cells measured after 24 hrs by annexinV-FITC/propidium iodide staining based flow cytometry. It counts as functional.
Series [7] relates to Plasmodium falciparum. Description: Resistance index, ratio of IC50 for antiplasmodial activity against artemisinin-resistant Plasmodium falciparum Cam 3.1 R539 to IC50 for antiplasmodial activity against chloroquine-resistant Plasmodium falciparum INDO. Format: functional.
Series [8] deals with A549. The series can be described thus: Anticancer activity against human A549 cells assessed as cell growth inhibition measured for 72 hrs by MTT assay. The note with it: A549, 72 h. Format: functional, cell-based.
Series [9] can be described thus: Selectivity index, ratio of CC50 for human HEK293 cells to IC50 for antiplasmodial activity against chloroquine-resistant Plasmodium falciparum INDO. It counts as toxicity. As to conditions: HEK293 cells versus Plasmodium falciparum INDO.
Series [10] concerns BEAS-2B. Description: Anticancer activity against human BEAS-2B cells assessed as cell growth inhibition measured for 72 hrs by MTT assay. Format: functional, cell-based.
Series [11] in a line: Selectivity ratio of IC50 for anticancer activity against human BEAS-2B cells to IC50 for anticancer activity against human A549 cells. Format: toxicity, cell-based. The note with it: BEAS-2B cells versus A549 cells, read-out: Ratio IC50.
In another series the test system is L02. The series can be described thus: Anticancer activity against human L02 cells assessed as cell growth inhibition measured for 72 hrs by MTT assay. The note with it: L02, 72 h. It counts as functional, cell-based.
Series [12] relates to Plasmodium falciparum. Description: Antiplasmodial activity against ring stage chloroquine-resistant Plasmodium falciparum INDO assessed as ring stage parasite killing for 0 to 6 hrs by stage specific inhibition assay relative to control. Further details: scale not given: the % may be the effect or the level left. It counts as functional. As to conditions: time 0-6 hrs.
Series [13] deals with Plasmodium falciparum. Description: Antiplasmodial activity against ring stage chloroquine-resistant Plasmodium falciparum Cam 3.1 R539 assessed as percentage survival at 700 nM for 6 hrs by ring stage survival assay relative to control. Format: functional.
In series [14] the test system is Plasmodium falciparum. Description: Antiplasmodial activity against schizont stage chloroquine-resistant Plasmodium falciparum INDO assessed as parasite killing for 6 to 9 hrs by stage specific inhibition assay relative to control. Further details: scale not given: the % may be the effect or the level left. Format: functional. As to conditions: time 6-9 hrs.
In series [15] the test system is Plasmodium berghei. The series can be described thus: Antimalarial activity against Plasmodium berghei ANKA infected in Balb/c mouse assessed as suppression of parasitemia at 50 mg/kg, ip administered for 4 days by microscopic analysis. It counts as functional. As to conditions: time 4 day.
The test system of series [16] is Plasmodium falciparum. Description: Antiplasmodial activity against trophozoite stage chloroquine-resistant Plasmodium falciparum INDO assessed as parasite killing for 4 to 8 hrs by stage specific inhibition assay relative to control. It counts as functional, organism-based. As to conditions: time 4-8 hrs.
The subject of series [17] is Plasmodium falciparum. The series can be described thus: Antiplasmodial activity against trophozoite stage chloroquine-resistant Plasmodium falciparum INDO assessed as parasite killing for 0 to 4 hrs by stage specific inhibition assay relative to control. It counts as functional. More on the design: scale not given: the % may be the effect or the level left. As to conditions: time 0-4 hrs.

The test system of series [18] is Plasmodium falciparum. The series can be described thus: Antiplasmodial activity against ring stage chloroquine resistant Plasmodium falciparum INDO assessed as percentage survival at 700 nM for 6 hrs by ring stage survival assay. It counts as functional.
Series [19] relates to Plasmodium berghei. Description: Antimalarial activity against Plasmodium berghei ANKA infected in Balb/c mouse assessed as suppression of parasitemia at 50 mg/kg, po administered for 4 days by microscopic analysis. Format: functional. As to conditions: time 4 day.
Series [20] deals with Plasmodium falciparum. The series can be described thus: Antiplasmodial activity against ring stage chloroquine-resistant Plasmodium falciparum INDO assessed as percentage survival at 70 nM for 6 hrs by ring stage survival assay. Format: functional, organism-based.
The subject of series [21] is Plasmodium falciparum. The series can be described thus: Antiplasmodial activity against schizont stage chloroquine-resistant Plasmodium falciparum INDO assessed as parasite killing for 3 to 6 hrs by stage specific inhibition assay relative to control. More on the design: scale not given: the % may be the effect or the level left. It counts as functional. As to conditions: time 3-6 hrs.

The subject of series [22] is Plasmodium falciparum. Description: Antiplasmodial activity against ring stage chloroquine-resistant Plasmodium falciparum INDO assessed as ring stage parasite killing for 12 hrs by stage specific inhibition assay relative to control. Format: functional. More on the design: scale not given: the % may be the effect or the level left.
The test system of series [23] is Plasmodium falciparum. Description: Antiplasmodial activity against schizont stage chloroquine-resistant Plasmodium falciparum INDO assessed as parasite killing for 0 to 3 hrs by stage specific inhibition assay relative to control. Format: functional, organism-based. The note with it: time 0-3 hrs.
Series [24] deals with Plasmodium falciparum. Description: Antiplasmodial activity against ring stage chloroquine-resistant Plasmodium falciparum Cam 3.1 R539 assessed as percentage survival at 70 nM for 6 hrs by ring stage survival assay. It counts as functional.
The subject of series [25] is Plasmodium falciparum. Description: Antiplasmodial activity against schizont stage chloroquine-resistant Plasmodium falciparum INDO assessed as parasite killing for 9 to 12 hrs by stage specific inhibition assay relative to contol. It counts as functional. More on the design: scale not given: the % may be the effect or the level left. As to conditions: time 9-12 hrs.

One may read the CC50 as the concentration giving 50% cytotoxicity. By IC50 is commonly meant the midpoint of a concentration-inhibition curve. With `C=C(c1ccc(Cl)cc1Cl)C1COC2(CCCCC2)OO1` (configuration not stated), the CC50 at 24 h in series [1] is 2.47 µM. For the same molecule, the IC50 was determined as 0.109 µM in the series with Plasmodium falciparum [2]; 17.6 µM with HepG2; 0.018 µM in the series on Plasmodium falciparum [3]; 0.81 µM in the series with A549 [8]; 16.7 µM in the series on BEAS-2B [10]; 3.69 µM in the series on L02. For the same molecule, the selectivity ratio in series [4] was 0.097; in [9], 145; in series [11] it was 20.6. Besides, the Activity in the series with BEAS-2B [5] is listed as 4.5%; in the series with A549 [6], 78%. Moreover, the “Ratio IC50” value in the series with Plasmodium falciparum [7] turned out to be 6.09.

Consider `C=C(c1ccc(Cl)cc1Cl)C1COC2(CCCC2)OO1` (configuration not stated), for which the Activity was found to be 66% in the series on Plasmodium falciparum [12]; 20% in the series on Plasmodium falciparum [13]; 100% in the series on Plasmodium falciparum [14]; 100% in the series on Plasmodium berghei [15]; 25% in the series on Plasmodium falciparum [17]; 10% in the series on Plasmodium falciparum [18]. For the same molecule, the Activity turned out to be 0% with Plasmodium berghei [19]; 60% in the series on Plasmodium falciparum [21]; 100% in the series with Plasmodium falciparum [22]; 100% in the series on Plasmodium falciparum [24]; 100% with Plasmodium falciparum [25]. In addition, the CC50 at 24 h in series [1] is 12.1 µM. For the same molecule, the half-maximal inhibitory concentration (IC50) in the series on Plasmodium falciparum [2] was 0.0707 µM; with HepG2, 15.7 µM; in the series on Plasmodium falciparum [3] it was 0.00969 µM; in the series with A549 [8], 1.43 µM; in the series on BEAS-2B [10], 17.4 µM; with L02, 2.55 µM. Further, the outcome with Plasmodium falciparum [16] and in the series on Plasmodium falciparum [23] was Active. The selectivity ratio in [4] came to 0.2; in series [9], 1350; in series [11], 12.2. The “Ratio IC50” value with Plasmodium falciparum [7] worked out at 7.29. Besides, the outcome in the series on Plasmodium falciparum [20] was inactive.

`C=C(c1ccc(OC)c(F)c1)C1COC2(OO1)C1CC3CC(C1)CC2C3` (configuration not stated): the Activity in the series with Plasmodium falciparum [12] is recorded as 38%; in the series with Plasmodium falciparum [13] it was 6%; with Plasmodium berghei [15] it was 100%; in the series on Plasmodium falciparum [17] it was 50%; in the series with Plasmodium falciparum [18], 100%; in the series on Plasmodium berghei [19], 100%. Moreover, the Activity in the series with Plasmodium falciparum [22] is on record as 100%; with Plasmodium falciparum [24] it was 30%. The CC50 at 24 h in [1] was 15.9 µM. The IC50 with Plasmodium falciparum [2] came out at 0.0401 µM; with HepG2, 32.1 µM; in the series on Plasmodium falciparum [3], 0.00448 µM; with A549 [8], 48.2 µM; in the series on BEAS-2B [10], 61.2 µM; in the series on L02, 11.9 µM. The result in the series with Plasmodium falciparum [16] and in the series on Plasmodium falciparum [23] was Active. The selectivity ratio in [4] was 0.57; in series [9] it was 3970; in series [11], 0.68. Further, the “Ratio IC50” value in the series with Plasmodium falciparum [7] turned out to be 8.95. Moreover, the result in the series on Plasmodium falciparum [20] was inactive.

For the molecule `CCN(CC)CCCC(C)Nc1ccnc2cc(Cl)ccc12` (configuration not stated) [CHLOROQUINE], the Activity with Plasmodium berghei [15] and in the series with Plasmodium berghei [19] was 100% throughout. Further, the half-maximal inhibitory concentration (IC50) with HepG2 worked out at 49 µM; in the series on A549 [8], 100 µM; in the series with BEAS-2B [10] it was 3.07 µM; in the series on L02, 15 µM.

As for `C[C@@H]1CC[C@H]2[C@@H](C)C(=O)O[C@@H]3O[C@@]4(C)CC[C@@H]1[C@]32OO4` [ARTEMISININ], the Activity in the series on Plasmodium falciparum [13] was found to be 20%; in the series with Plasmodium falciparum [18], 10%; in the series with Plasmodium falciparum [24], 50%. In series [1], the cytotoxic concentration (CC50) at 24 h is more than 26 µM. Besides, the IC50 in the series with Plasmodium falciparum [2] amounted to 0.0135 µM; with HepG2, 4.09 µM; in the series on Plasmodium falciparum [3] it was 0.0066 µM; in the series on A549 [8], 9.85 µM; in the series with BEAS-2B [10], 7.53 µM; with L02, 8.25 µM. In addition, the selectivity ratio turned out to be 2.01 in series [4], 4330 in series [9] and 0.76 in series [11]. Moreover, in the series on Plasmodium falciparum [7], the “Ratio IC50” value came out at 2.05. Besides, the outcome with Plasmodium falciparum [20] was inactive.

`C=C(c1ccc(Cl)c(Cl)c1Cl)C1COC2(CCCC2)OO1` (configuration not stated): the CC50 at 24 h in [1] was found to be 1.44 µM. The IC50 with HepG2 is 8.45 µM; in the series with Plasmodium falciparum [3], 0.0206 µM; with A549 [8] it was 0.69 µM; in the series with BEAS-2B [10], 11.5 µM; with L02, 1.19 µM. The selectivity ratio turned out to be 0.13 in series [4], 72 in series [9] and 16.7 in series [11]. The Activity came out at 8.6% with BEAS-2B [5] and 93.6% in the series on A549 [6].
